Results taken from paper PMC9014415, “Repositioning of a Diaminothiazole Series Confirmed to Target the Cyclin-Dependent Kinase CRK12 for Use in the Treatment of African Animal Trypanosomiasis” (Journal of Medicinal Chemistry, 2022).

How the values were obtained:
[1] = Bovine hepatocyte stability; type: in vitro ADME; details: intrinsic clearance
Experimental: collagen coated cell culture plates for 10 minutes at 37 °C, 5% CO2. Upon addition of an equal volume of supplemented WME containing 1 µM test compound, an aliquot of incubation solution was removed to acetonitrile containing internal standard (final concentration 0.5 µM test compound and a cell density of 0.25 million cells/mL). Similarly, aliquots were removed at 3, 6, 9, 15, 30, 45, 60, 90 and 120 min. 100 µL of 80:20 water:acetonitrile was added to all samples and the analysis plate was centrifuged (10 min, 1,665 g, RT) prior to injection and analysis of samples by UPLC-MS/MS. The response (area ratio of test compound relative to internal standard) was plotted against time using an exponential decay model and rate of disappearance calculated. Hepatocyte CLint (mL/min/10^6 cells) was scaled to in vivo CLint (ml/min/g Liver) using the hepato-cellularity scaling factor of 120 x […]
(b) Bovine hepatocyte stability. Freshly isolated female bovine (Prim’Holstein) hepatocytes were supplied by Biopredic InternationalTM. […]
of 80:20 water:acetonitrile was added to all samples and the analysis plate was centrifuged (10 min, 1,665 g, RT) prior to injection and analysis of samples by UPLC-MS/MS. The response (area ratio of test compound to internal standard) was plotted against time using an exponential decay model and rate of disappearance calculated. […]

in vivo = details: NMRI, mouse
Experimental: 2.4 Protein plasma binding
This was determined as previously described.6
2.5 PK and maximum tolerated dose - mouse
PK studies in female NMRI mice (Figure S1): Test compounds 1, 2 and 10 were dosed SC at 10 mg free base/kg (dose volume 10 mL/kg; dose vehicle: 5% (v/v) DMSO, 40% polyethylene glycol 400 (PEG400) and 55% deionized water) to female NMRI mice (n = 3). Blood samples (10 μL) were taken from each mouse at 0.08, 0.25, 0.5, 1, 2, 4, 6, 8 h post dose (24 h post dose for compounds 2 and 10 only) and mixed with two volumes of deionized water (20 μL). Alternatively, compound 2 was delivered for 48 h via SC implanted ALZET osmotic pumps (10, 25 and 50 mg free base/mL, vehicle: 50% DMSO and 50% deionized water) to the female NMRI mouse (n = 3). Blood samples (10 μL) from each mouse were taken at 1, 3, 6, 24, 30 and 48 h post-dose and mixed with two volumes of deionized water (20 μL). […]
Response to treatment was determined by monitoring parasitaemia twice a week until day 21. […]
In each of the cattle efficacy studies (3.3, 3.4 and 3.5), efficacy was assessed primarily on absence of recrudescence of parasitaemia for 100 days after treatment administration together with improvements in Packed Cell Volume, body weight and clinical signs of infected compared with uninfected animals. […]

CC(C)CS(=O)(=O)N[C@H]1CC[C@H](Nc2nc(N)c(C(=O)c3c(F)cccc3F)s2)CC1 [Compound 1, N-((trans)-4-((4-Amino-5-(2,6-difluorobenzoyl)thiazol-2-yl)amino)cyclohexyl)-2-methylpropane-1-sulfonamide]
Bovine Hepatocyte Cli [1]: <0.5 / 0.5 mL/min/g

CC(C)CS(=O)(=O)N[C@H]1CC[C@H](Nc2nc(N)c(C(=O)c3c(F)cc(CN(C)C)cc3F)s2)CC1 [Compound 2, N-(trans)-[4-[[4-Amino-5-[4-(dimethylaminomethyl)-2,6-difluoro-benzoyl]thiazol-2-yl]amino]cyclohexyl]-2-methyl-propane-1-sulfonamide]
Cmax (in vivo): 34 to 65 ng/mL
